This is an account of results in article PMC3965624 (Life sciences, 2014).

Molecules are shown by their SMILES.

For the assay, the target named is NTSR1 (Homo sapiens, UniProt P30989). Nature of the assay: […]-Tyr3-NTS radioligand displacement on intact NCI-H1299 cells. Format: cell-based. For orientation: In a radioligand displacement assay an active substance lowers the binding of a labelled ligand.
Sequence of NTSR1 (P30989 whole entry): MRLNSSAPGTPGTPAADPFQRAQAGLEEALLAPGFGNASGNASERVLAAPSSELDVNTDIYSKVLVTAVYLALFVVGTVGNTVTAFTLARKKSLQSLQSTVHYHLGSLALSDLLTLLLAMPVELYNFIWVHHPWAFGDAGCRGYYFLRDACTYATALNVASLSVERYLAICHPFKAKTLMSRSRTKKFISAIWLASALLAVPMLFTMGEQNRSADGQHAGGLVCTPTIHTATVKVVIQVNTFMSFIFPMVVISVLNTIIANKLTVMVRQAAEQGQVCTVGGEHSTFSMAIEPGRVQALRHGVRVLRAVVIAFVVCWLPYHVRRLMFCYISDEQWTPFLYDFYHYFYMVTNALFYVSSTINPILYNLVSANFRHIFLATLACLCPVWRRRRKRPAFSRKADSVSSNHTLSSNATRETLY

As a reminder, the IC50 is the concentration that inhibits the measured activity by half. Read a low IC50 as higher potency. Turning to `COc1cccc(OC)c1-c1cc(C(=O)NC2(C(=O)O)C3CC4CC(C3)CC2C4)nn1-c1ccnc2cc(Cl)ccc12` (stereo not shown) [SR48692], the concentration for half-maximal inhibition (IC50) was found to be 205 nM.
